The record followed here is patent publication US20090047221A1 (NIPRI LIMITED, priority 2004, published 2009).

Common to all, as to format: cell-based
Experiment [1] in a line: Synergy with known cancer drugs measured using an MTT assay (FIGS. 9a-9c). Particulars: ALM-54 at 0.5 μg. From the text:
(§1) The MTT assay was used initially to determine the anti-proliferative activity of the test compounds. In the MTT assay a yellow thiazolyl blue tetrazolium bromide salt (MTT) is reduced, in metabolically active cells, to form insoluble purple formazan crystals which are solubilised by the addition of dimethyl sulphoxide (DMSO). Absorbance readings can then be determined spectrophotometrically and a relationship established between control untreated cells and drug treated cells enabling the quantification of anti-proliferative changes as a result of drug treatment (Mosmann, 1983).
(§2) Wells containing medium only were used as blanks. Following the attachment period, cells were treated with appropriate drug concentrations (20 μl added per well). 40 mg/ml stock drug solutions, in DMSO, were stored at −20° C. and on the day of drug treatment working solutions of 4 mg/ml were prepared in medium which was further diluted to achieve final drug dilution volumes of 20 μl. Initial screening was determined over a concentration range of 1-200 μg/ml. For potent compounds the assay was repeated over a narrower concentration range to determine accurate IC50 values. Cells were exposed to drug for 96 h continual exposure (37° C., 5% CO2). Following the 96 h incubation, 50 μl MTT solution (1 g MTT/500 ml PBS) was added per well and the plates were further incubated for 4 h (37° C., 5% CO2). After incubation the MTT and medium was removed from the wells and 100 μl DMSO added per well. Plates were agitated on an orbital mixer platform (Stuart Scientific) for 10 minutes. Absorbance was measured at 570 nm on a Biotrak II (Amersham Bioscience) plate reader. IC50 values were calculated comparing control and drug treated cells.

Experiment [2] concerns breast cancer (MDA-MB-468 and MCF-7 cell lines) and melanoma cell lines (MalMe3, SkMe128). As to the kind of experiment: Cell cycle analysis by flow cytometry (propidium iodide); apoptosis as cells in sub G0/G1 (pre G0) peak. Particulars: following treatment with IC70 concentration of compound. Here is the method: Assessment of cell cycle analysis was performed using propidium iodide staining of cells and subsequent analysis on a Beckton Dickinson flow cytometer. […] The following day the medium was removed and replaced with 5 ml medium per flask containing the appropriate drug concentrations to be tested. 40 mg/ml stock drug solutions in DMSO were stores at −20° C. and on the day off drug treatment working solutions of 4 mg/ml were prepared in medium from which the final drug dilutions were prepared. Cells were maintained in an incubator (37° C., 5% CO2) for up to 96 h post treatment. After 24, 48, 72 or 96 h time points the medium from each flask was collected, stored on ice, and the remaining cells in the flasks were trypsinised by aiding 1 ml trypsin-EDTA solution to each flask. Cells were replaced into the incubator for 10 min to allow them to detach from the plastic plate. The cells in each flask were collected by adding the appropriate medium removed from each flask back to the corresponding flask and then placing medium containing both the attached and floating cells into a 15 ml tube. Cells were centrifuged at 4° C. for 5 min at 1500 rpm and the supernatant removed from each tube. The remaining cells were washed twice in ice cold PBS and then fixed in ice cold methanol overnight at −20° C. On the day of analysis of cells each tube was centrifuged at 4° C. for 5 min at 1500 rpm and the methanol removed and the cells washed twice in ice cold PBS. 20 μl propidium iodide solution (1 mg/ml) and 20 μl RNase A (10 mg/ml solution) were added to 1 ml PBS per tube and the cells were incubated for 30 min at 37° C. Cells were analysed on the flow cytometer and cell cycle changes were assessed.
(In general: A flow cytometer gives signals particle by particle.)

The test system of another experiment is ZR-75-1. As to the kind of experiment: MTT assay (anti-proliferative activity).
Description: as §1, §2
A general note: Formazan colour is commonly taken as a measure of viable cells.

In another experiment the test system is HCT+/+. As to the kind of experiment: MTT assay (anti-proliferative activity).
Description: as §1, §2

A further experiment concerns H23. As to the kind of experiment: MTT assay (anti-proliferative activity).
Description: as §1, §2

Another experiment relates to PNT2. As to the kind of experiment: MTT assay (anti-proliferative activity).
Description: as §1, §2

A further experiment relates to HCT−/−. As to the kind of experiment: MTT assay (anti-proliferative activity).
Description: as §1, §2

The test system of a further experiment is RKO. As to the kind of experiment: MTT assay (anti-proliferative activity).
Description: as §1, §2

Another experiment deals with LNCAP. As to the kind of experiment: MTT assay (anti-proliferative activity).
Description: as §1, §2

Another experiment has as its system PC3. As to the kind of experiment: MTT assay (anti-proliferative activity).
Description: as §1, §2

In a further experiment the test system is HT29. As to the kind of experiment: MTT assay (anti-proliferative activity).
Description: as §1, §2

A further experiment has as its system MDA-MB-468. As to the kind of experiment: MTT assay (anti-proliferative activity). Conditions: read-out: IC 50 MDA-MB-468. The protocol:
(§3) The MTT assay was used initially to determine the anti-proliferative activity of the test compounds. In the MTT assay a yellow thiazolyl blue tetrazolium bromide salt (MTT) is reduced, in metabolically active cells, to form insoluble purple formazan crystals which are solubilised by the addition of dimethyl sulphoxide (DMSO).
as §2, with “For potent compounds the assay was repeated over a narrower concentration range to determine accurate IC50 values.” left out

The subject of a further experiment is MCF-7. As to the kind of experiment: MTT assay (anti-proliferative activity). Conditions: read-out: IC 50 MCF-7. Here is the method: as §3
as §2, with “For potent compounds the assay was repeated over a narrower concentration range to determine accurate IC50 values.” left out

For a further experiment, the system named is MalMe3M. As to the kind of experiment: MTT assay (anti-proliferative activity). Particulars: 96 h continual exposure, read-out: IC 50 MalMe3M. Here is the method: as §3
as §2, with “For potent compounds the assay was repeated over a narrower concentration range to determine accurate IC50 values.” left out

A further experiment relates to SkMel28. As to the kind of experiment: MTT assay (anti-proliferative activity). Particulars: read-out: IC 50 SkMel28. The protocol:
as §3
as §2, with “For potent compounds the assay was repeated over a narrower concentration range to determine accurate IC50 values.” left out

In the next experiment the test system is H157. As to the kind of experiment: MTT assay (anti-proliferative activity). Particulars: Homo sapiens, NCI-H157.
Description: as §1, §2

The test system of experiment [3] is caspase 3 in MDA-MB-468 breast cancer cells. As to the kind of experiment: Western blotting (immunoblot), caspase 3 cleavage. Conditions: concentrations similar to those required to kill MDA-MB-468 breast cancer cells. The protocol:
Western blotting was used to assess drug induced changes of cellular proteins. Cells were seeded in P90 tissue culture vessels and treated with drugs at a range of concentrations for 72 and 96 h. Following incubation of cells for the required duration the medium was collected from the cells and attached cells were scraped from the tissue culture vessel and collected into the medium. Excess medium was removed by centrifugation at 4° C. for 5 minutes at […] and the supernatant removed from each tube. The remaining cells were washed twice in ice cold PBS and then incubated on ice with protein extraction buffer (10 mM Tris-HCl, 150 mM NaCl, 1 mM EDTA, 1% Triton-X, 0.1% SDS and a protease inhibitor) for 20 min. Cells were sonicated and centrifuged for 5 min at 4° C. and the supernatant removed for subsequent analysis. Protein samples were stored at −70° C. until analyses. 8, 10 or 12% acrylamide gels were prepared and used depending on size of protein to be determined. Protein concentrations were determined using the BCA™ (bicinchoninic acid) protein determination assay (Pierce) according to manufacturer's guidelines and 30-50 μg protein samples were loaded and separated on the acrylamide gels. Gels were ran at 150V for approximately 2 h at 4° C. Following separation of the protein samples each was transferred to a PVDF transfer membrane (Hybond-P) overnight at 4° C. at 40V. […]

Like-named read-outs stand apart in the source and are kept apart here.

Consider `CC1Cc2ccc(C(=O)NC(Cc3ccccc3)C(=O)O)c(O)c2C(=O)O1` (mixture of isomers) [ALM-54], for which the synergy with irinotecan result in experiment [1] (FIG. 9a) is “synergy”. Further, the synergy with vinorelbine result in experiment [1] (FIG. 9b) is “synergy”. In addition, the synergy with cisplatin result in experiment [1] (FIG. 9c) was “synergy”. The “% Cells in Pre G0 phase of Cell Cycle” value in experiment [2] is listed as 12.8%. Besides, the IC50 in the experiment on ZR-75-1 worked out at 0.13 µM; with HCT+/+ it was 16.3 µM; in the experiment on H23, 2 µM; with PNT2, 5.4 µM; in the experiment with HCT−/−, 10.8 µM; in the experiment with RKO it was 2.7 µM. Moreover, the IC50 came to 4.7 µM in the experiment on LNCAP; 5.4 µM with PC3; 1.3 µM with HT29; 10.8 µM with MDA-MB-468 (96 h continual exposure); 16.2 µM with MCF-7 (96 h continual exposure); 13.5 µM with MalMe3M. For the same molecule, the IC50 with SkMel28 (96 h continual exposure) turned out to be 46 µM.
Take `CC1Cc2cccc(O)c2C(=O)O1` (racemic) [ALM-9, Racemic Mellein]: the “% Cells in Pre G0 phase of Cell Cycle” value in experiment [2] was 30.4%. The IC50 in the experiment with ZR-75-1 (Homo sapiens, ZR-75-1) is 281 µM; in the experiment with HCT+/+, more than 561 µM; with H23 (Homo sapiens, NCI-H23) it was more than 561 µM; with PNT2 (Homo sapiens, PNT2), 421 µM; in the experiment on HCT−/− it was more than 561 µM; in the experiment on RKO (Homo sapiens, RKO), 494 µM. Also, the IC50 in the experiment on H157 is more than 561 µM; with LNCAP (Homo sapiens, LNCaP), more than 561 µM; in the experiment with PC3 (Homo sapiens, PC-3), 421 µM; with HT29 (Homo sapiens, HT-29) it was 561 µM; in the experiment with MDA-MB-468 (Homo sapiens, MDA-MB-468, 96 h continual exposure) it was 283 µM; with MCF-7 (Homo sapiens, MCF7, 96 h continual exposure), 946 µM. For the same molecule, the IC50 in the experiment on MalMe3M (Homo sapiens, Malme-3M) was more than 960 µM; in the experiment with SkMel28 (Homo sapiens, SK-MEL-28, 96 h continual exposure), 821 µM. The “cleavage and activation of caspase 3 (immunoblot)” value in [3] is “promotes the cleavage and thus the activation of caspase 3”.
